Values of other authors in patent publication US20040112375A1, “Predicting outcome of hyperbaric oxygen therapy treatment with nitric oxide bioavailability” (priority 2002, published 2004).

Molecule | fall of plasma isoprostane levels (diabetic men, 600 mg twice daily for seven days) | effect on isoprostane levels in biological fluids (in vivo)
2-(2,3-dihydro-5-acetoxy-4,6,7-trimethylbenzofuranyl) acetic acid [raxofelast] | 50% | 
Cc1c(C)c2c(c(C)c1O)CC[C@@](C)(CCC[C@H](C)CCC[C@H](C)CCCC(C)C)O2 [alpha tocopherol] |  | reduce such isoprostane levels
